Experimental data published in patent US10746738B2, “Claudin-1 peptide reagents and methods” (THE REGENTS OF THE UNIVERSITY OF MICHIGAN, priority 2015, dated 2020).
Entries after “also recorded” stand apart in the source; their conditions may differ.

Experiments:
claudin-1 (CLDN1) = target: T1, claudin-1 (CLDN1) (Homo sapiens, UniProt O95832); experiment: siRNA knockdown of CLDN1 expression, peptide and antibody binding to SW620 cells; assay type: cell-based
T1 construct: endogenous in cells; host or cells: SW620 human colorectal adenocarcinoma cells
T1 sequence (O95832 1-211): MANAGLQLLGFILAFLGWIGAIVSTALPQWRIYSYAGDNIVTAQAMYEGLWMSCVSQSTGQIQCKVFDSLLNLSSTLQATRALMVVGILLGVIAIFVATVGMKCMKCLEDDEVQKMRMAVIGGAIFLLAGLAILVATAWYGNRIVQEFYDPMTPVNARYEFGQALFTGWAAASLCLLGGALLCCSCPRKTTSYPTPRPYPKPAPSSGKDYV
Description: CLDN1 expression was knocked down using Dharmacon On-Target Plus SMARTpool Human CLDN1 siRNA (Thermo Scientific) according to the manufacturer's protocol. SW620 cells were plated overnight on coverslips in a 12-well plate at 0.2×10^6 cells/mL. The following day, cells were transfected with 3 μL DharmaFECT1 and either 25 nM CLDN1 or control siRNA. After 72 h, transfected cells were analyzed for CLDN1 expression through immunocytochemistry, a peptide binding study, or a Western blot of the cell lysate. For the immunocytochemistry experiment, cells were fixed with ice-cold methanol for 20 minutes at −20° C., blocked for 1 h at RT with PBS+2% BSA, stained with anti-human CLDN1 antibody at 5 μg/mL for 1 h at RT, then with goat anti-Rabbit AF488 (1:500) for 1 h at RT before being mounted on slides with DAPI with Prolong Gold. siRNA-transfected cells were also stained with 5 μM RTS-Cy5.5 or SPT-Cy5.5 for 30 minutes at 4° C., fixed with 4% PFA for 10 minutes at RT, then mounted on slides. Simultaneously, transfected cells were lysed with RIPA buffer containing Roche Mini-Complete EDTA-free Protease Inhibitor for 10 minutes on ice, collected and spun at 20,000×g for 10 minutes at 4° C. Supernatant was saved, total protein concentration quantified via a BCA assay, and 10 ug protein of each sample run on a Novex 4-20% 1.5 mm protein gel before transferring to a PVDF membrane. The membrane was blocked with PBST+5% non-fat milk for 1 h at 4° C., stained with either rabbit anti-CLDN1 Ab or mouse anti-tubulin Ab at 4° C. overnight, then with anti-rabbit HRP (1:500, for CLDN1) or anti-mouse HRP (1:500, for tubulin) for 1 h at RT before developing.
The specificity of peptide binding was validated on siRNA knockdown. […] These cells were transfected with siRNA to knockdown cell surface expression of claudin-1. […] The fluorescence intensities (mean±std) are shown (FIG. 2H). […] Given the experimental design and mean-squared-errors shown in FIG. 2H, with triplicate slides we have 98% power to obtain P<0.01 for interactions that show a 3-fold difference of differences.

SW620 cells [1] = experiment: Apparent dissociation constant by flow cytometry; assay type: binding, human; settings: 0-200 nM, 1 h at 4° C., R^2=0.95
Description: The apparent dissociation constant of RTS*-Cy5.5 to SW620 cells was measured. SW620 cells were washed two times with PBS+0.5% BSA, then 1×10^5 cells were incubated with RTS*Cy5.5 at dilutions ranging from 0-200 nM for 1 h at 4° C. Cells were then washed of unbound peptide 5 times with PBS+0.5% BSA before analyzing via flow cytometry (FACS Canto, BD). Sample means were used to calculate the equilibrium dissociation constant, kd, via nonlinear regression analysis using GraphPad Prism software.
The apparent dissociation constant (kd) of the peptides to cells in vitro was determined. The fluorescently-labeled peptide was be serially diluted in PBS at concentrations that ranged from 0 to 200 nM in 25 nM increments. Cells were incubated with the peptide, and the mean fluorescence intensities was measured on flow cytometry. The equilibrium dissociation constant kd=1/ka was calculated by performing a least squares fit of the data to the non-linear equation I=(I0+Imaxka[X])/([…]). I0 and Imax are the initial and maximum fluorescence intensities, corresponding to no peptide and at saturation, respectively, and [X] represents the concentration of the bound peptide. This approach is illustrated with RTS*-Cy5.5 in FIG. 3B, where kd=42 nM.

SW620 cells [2] = experiment: Apparent association time constant by flow cytometry; assay type: binding, human; settings: 5 μM, 4° C.
Description: To measure the apparent association time constant of RTS*-Cy5.5, SW620 cells were washed two times with PBS+0.5% BSA, then 1×10^5 cells were incubated with 5 μM RTS*Cy5.5 at 4° C. for different time intervals ranging from 2-15 min. The cells were immediately washed of unbound peptide several times with PBS+0.5% before analyzing via flow cytometry. The mean fluorescent intensity of SW620 cells at the various time points was ratioed with that of untreated cells and used to calculate the rate constant, k, by fitting the data to a first order kinetics model, y(t)=Imax[1−exp^(−kt)], using Origin 6.1 software.
To measure the apparent association time constant of RTS*-Cy5.5, SW620 cells were washed 2× with PBS+0.5% BSA, then ˜10^5 cells were incubated with 5 μM RTS*-Cy5.5 at 4° C. for time intervals ranging from 2-15 min. The cells were immediately washed of unbound peptide 5× with PBS+0.5% BSA before analyzing with flow cytometry. The mean fluorescence intensity of SW620 cells at the various time points was ratioed with that of untreated cells and used to calculate the rate constant k by fitting the data to a first order kinetics model, y(t)=Imax[1−exp^(−kt)], using Origin 6.1 software. An apparent association time constant k=0.83 min^−1 which corresponds to <1.2 min was measured.

colonic dysplasia = experiment: In vivo fluorescence endoscopy of colon in CPC;Apc mouse; settings: CPC;Apc mouse colon
Excerpt: A genetically engineered mouse model (Cpc;Apc) that spontaneously forms adenomatous polyps in the colon was used for this study and handled according to Institutional Guidelines. The colons of anesthetized mice were first cleaned with water before imaging with a small animal endoscope (Karl Storz Veterinary Endoscope) using the white light channel to locate polyps by identifying anatomic landmarks and the distance of the endoscope tip from the anus. […] Fluorescent and reflectance images were then collected with the same endoscope set to the appropriate channels. Once in vivo imaging was complete, four of the mice used in the study were euthanized and colons harvested. Polyps and flat lesions detected during fluorescence imaging were located, removed, and processed for histology (H&E).
These mice are genetically-engineered to spontaneously develop colonic dysplasia, and the colonic lesions that develop are molecularly and histologically similar to that seen in human disease, making these mice a good model for monitoring cancer development. Because the extra-cellular domain of claudin-1 is completely homologous between human and mouse, peptides developed for human targets can be directly used in mouse imaging experiments. […] CPC;Apc mice were imaged at ˜3 months of age when they first begin to develop dysplasia. […] After imaging is completed, mice were euthanized, and the colons were resected. Based on the location of dysplastic lesions determined using fluorescence images collected with endoscopy, a pathologist measured the depth of dysplasia on histology, as shown by the dashed arrow in FIG. 7E. […] Images are obtained from mice over at least three sessions separated by 1 week to monitor for cancer progression.

RTS*-Cy5.5: RTSPSSR labeled at the C-terminus with Cy5.5 via a GGGSK linker
signal for siCL versus siCLDN1 cells (claudin-1 (CLDN1); SW620 cells, control siRNA versus CLDN1 siRNA, 3 replicate slides): 10.5 fold-change | binding to the surface of SW620 cells (claudin-1 (CLDN1); confocal microscopy): strong binding | Kd (SW620 cells [1]): 42 nM | time corresponding to association time constant (SW620 cells [2]): < 1.2 min | apparent association time constant k (SW620 cells [2]; 2-15 min): 0.83 min⁻¹ | fluorescence signal from dysplasia on endoscopy (colonic dysplasia): Increased signal; also recorded: increased fluorescence
